In one assay the test system is blood glucose. As to the kind of experiment: Hypoglycaemic activity: reduction in area under blood glucose curve after glucose load. The format is in vivo, Female CFLP mice. The note with it: Mus musculus, read-out: % Reduction in area under Blood Glucose Curve. As to the method: Female CFLP mice, weighing approximately 25 g, were fasted for 24 hours prior to the study. The compounds under study were administered orally as an aqueous solution to each of 6 mice. 30 minutes later a blood sample (10 μl) was obtained from the tail for the analysis of blood glucose. Immediately after taking this blood sample, glucose (1 g/Kg body weight) was administered subcutaneously to each mouse. 6 mice were given water as a control. Blood samples were then obtained from each mouse at 30 minute intervals for 120 minutes.
Compounds that produced a significant (P<0.05) reduction of blood glucose, compared with control mice given water, at any time interval, were considered active. The area under the blood glucose curve over the 2 hour period after the administration of the glucose was calculated for each compound and compared with the value for control animals.

Assay [1] in a line: Effect on energy expenditure of mice. Format: in vivo, Female CFLP mice. Conditions: Mus musculus. As to the method: Female CFLP mice, each weighing approximately 24 g were given food and water ad lib before and during the experiment. The compounds were dissolved in water by addition of one mole of hydrochloric acid per mole of compound and these solutions were administered orally to each of 12 mice. A further 12 mice were dosed orally with water. The mice were placed in boxes through which air was drawn and the oxygen content of the air leaving the boxes was measured. The energy expenditure of the mice was calculated for 21 hours after dosing from the volume of air leaving the boxes and its oxygen content, following the principles described by J. B. de V. Weir, J. Physiol. (London), 109, 1-9 (1949).

The mark [2] stands for this setting: po, 21 h, read-out: Mean Energy Expenditure (0-21 h).
The mark [3] stands for this setting: po, 3 h, read-out: Mean Energy Expenditure (0-3 h).
Setting [4] is: 2.5 μmol/Kg oral, 2 h after glucose 1 g/Kg s.c., vs control.
Setting [5] is: 12.5 μmol/Kg oral, 2 h after glucose 1 g/Kg s.c., vs control.

Counter-ions that a name gives are not always drawn. Like-named read-outs stand apart in the source and are kept apart here.

Consider `COC(=O)COc1ccc(C[C@@H](C)NC[C@H](OC)c2cccc(Cl)c2)cc1` (relative stereo) [Example 60, N-[2-(4-Carbomethoxymethoxyphenyl)-1-methylethyl]-2-methoxy-2-(3-chlorophenyl)ethanamine hydrochloride(RR,SS)diasteroisomer], for which the inhibition in vivo at 0.5 µmol/kg in the assay on blood glucose (0.5 μmol/Kg oral, 2 h after glucose 1 g/Kg s.c., vs control) amounted to 30.5%. The response vs control in vivo at 8.6 mg/kg in assay [1] (setting [2]) stood at 115%; in assay [1] (8.6 mg/kg po, 0-3 h, read-out: Mean Energy Expenditure (0-3 h)), 131%.
Take `COC(=O)COc1ccc(CC(C)NCC(OC)c2cccc(C(F)(F)F)c2)cc1` (stereo not drawn) [Example 2, N-[2-(4-Carbomethoxymethoxyphenyl)-1-methylethyl]-2-methoxy-2-(3-trifluoromethylphenyl)ethanamine hydrochloride]: the inhibition in vivo at 12.5 µmol/kg in the assay on blood glucose (po, 2 h) amounted to 47%. The figures for the response vs control in vivo at 23.1 mg/kg in assay [1] (setting [3]) and in assay [1] (setting [2]) were 124% and 113%, respectively.
For `CCOC(CNC(C)Cc1ccc(OCC(=O)OC)cc1)c1cccc(Cl)c1` (stereo not drawn) [Example 3, N-[2-(4-Carbomethoxymethoxyphenyl)-1-methylethyl]-2-ethoxy-2-(3-chlorophenyl)ethanamine hydrochloride], in the assay with blood glucose (po, 2 h), the inhibition in vivo at 12.5 µmol/kg worked out at 49%. Besides, the response vs control in vivo at 22.1 mg/kg worked out at 135% in assay [1] (setting [3]) and 116% in assay [1] (setting [2]).
For `CNC(=O)COc1ccc(CC(C)NCC(OC)c2cccc(Cl)c2)cc1` (stereo not drawn) [Example 4, N-[2-(4-Methylaminocarbonylmethoxyphenyl)-1-methylethyl]-2-methoxy-2-(3-chlorophenyl)ethanamine hydrochloride], the inhibition in vivo at 1 µmol/kg in the assay on blood glucose (po, 2 h) amounted to 54%. Moreover, the response vs control in vivo at 8.5 mg/kg in assay [1] (setting [3]) was 152%; in assay [1] (setting [2]) it was 120%.
On to `COC(=O)c1ccc(CC(C)NCC(OC)c2cccc(Cl)c2)cc1` (stereo not drawn) [Example 5, N-[2-(4-Carbomethoxyphenyl)-1-methylethyl]-2-methoxy-2-(3-chlorophenyl)ethanamine hydrochloride], for which the inhibition in vivo at 12.5 µmol/kg in the assay with blood glucose (po, 2 h) is 27%. Further, the response vs control in vivo at 19.9 mg/kg worked out at 128% in assay [1] (setting [3]) and 117% in assay [1] (setting [2]).
For `COC(=O)COc1cccc(CC(C)NCC(OC)c2cccc(Cl)c2)c1` (stereo not drawn) [Example 8, N-[2-(3-Carbomethoxymethoxyphenyl)-1-methylethyl]-2-methoxy-2-(3-chlorophenyl)ethanamine hydrochloride], the inhibition in vivo at 12.5 µmol/kg with blood glucose (po, 2 h) is 49%. Also, the response vs control in vivo at 21.4 mg/kg in assay [1] (setting [3]) is 142%; in assay [1] (setting [2]), 111%.
Turning to `CNCCOc1ccc(CC(C)NCC(OC)c2cccc(Cl)c2)cc1` (stereo not drawn) [Example 9, N-[2-(4-Methylaminoethoxy)phenyl)-1-methylethyl]-2-methoxy-2-(3-chlorophenyl)ethanamine dihydrochloride], the inhibition in vivo at 2.5 µmol/kg with blood glucose (setting [4]) amounted to 31%. Also, the response vs control in vivo at 22.4 mg/kg in assay [1] (setting [3]) is 168%; in assay [1] (22.4 mg/kg po, 0-21 h, read-out: Mean Energy Expenditure (0-21 h)), 151%.
Take `COC(=O)COc1ccc(CC(C)NCC(OC)c2ccccc2)cc1` (stereo not drawn) [Example 10, N-[2-(4-Carbomethoxymethoxyphenyl)-1-methylethyl]-2-methoxy-2-phenylethanamine hydrochloride monohydrate]: in the assay with blood glucose (po, 2 h), the inhibition in vivo at 1 µmol/kg turned out to be 24%. Also, the response vs control in vivo at 20.6 mg/kg is 135% in assay [1] (setting [3]) and 114% in assay [1] (setting [2]).
Take `CNC(=O)COc1ccc(CC(C)NCC(OC)c2ccccc2)cc1` (stereo not drawn) [Example 11, N-[2-(4-Methylaminocarbonylmethoxyphenyl)-1-methylethyl]-2-methoxy-2-phenylethanamine hydrochloride]: in the assay with blood glucose (po, 2 h), the inhibition in vivo at 1 µmol/kg came out at 42%. Also, the values for the response vs control in vivo at 19.6 mg/kg in assay [1] (setting [3]) and in assay [1] (setting [2]) were 139% and 118%, respectively.
For the compound `COC(=O)COc1ccc(CC(C)NCC(OC)c2cccc(Br)c2)cc1` (stereo not drawn) [Example 12, N-[2-(4-Carbomethoxymethoxyphenyl)-1-methylethyl]-2-methoxy-2-(3-bromophenyl)ethanamine hydrochloride], the inhibition in vivo at 1 µmol/kg with blood glucose (po, 2 h) is 51%. The response vs control in vivo at 23.6 mg/kg in assay [1] (setting [3]) was 130%; in assay [1] (setting [2]), 123%.
For the compound `CNCCOc1ccc(CC(C)NCC(OC)c2ccccc2)cc1` (stereo not drawn) [Example 13, N-[2-(4-(2-Methylaminoethoxy)phenyl)-1-methylethyl]-2-methoxy-2-phenylethanamine dihydrochloride], the inhibition in vivo at 2.5 µmol/kg with blood glucose (po, 2 h) was 21%. Moreover, the response vs control in vivo at 20.8 mg/kg worked out at 145% in assay [1] (setting [3]) and 118% in assay [1] (setting [2]).
With `COC(=O)COc1ccc(CCC(C)NCC(OC)c2cccc(Cl)c2)cc1` (stereo not drawn) [Example 14, N-[3-(4-Carbomethoxymethoxyphenyl)-1-methylpropyl)-2-methoxy-2-(3-chlorophenyl)ethanamine hydrochloride], the response vs control in vivo at 22.1 mg/kg stood at 135% in assay [1] (22.1 mg/kg po, 0-3 h, read-out: Mean Energy Expenditure (0-3 h)) and 103% in assay [1] (22.1 mg/kg po, 0-21 h, read-out: Mean Energy Expenditure (0-21 h)).
`CNC(=O)COc1ccc(CC(C)NCC(OC)c2cccc(Br)c2)cc1` (stereo not drawn) [Example 15, N-[2-(4-Methylaminocarbonylmethoxyphenyl)-1-methylethyl]-2-methoxy-2-(3-bromophenyl)ethanamine hydrochloride]: the inhibition in vivo at 0.5 µmol/kg in the assay with blood glucose (po, 2 h) is 41%. The values for the response vs control in vivo at 23.6 mg/kg in assay [1] (setting [3]) and in assay [1] (setting [2]) were 137% and 125%, respectively.
For the compound `CCOC(CNC(C)Cc1ccc(OCC(=O)NC)cc1)c1cccc(Cl)c1` (stereo not drawn) [Example 16, N-[2-(4-Methylaminocarbonylmethoxyphenyl)-1-methylethyl]-2-ethoxy-2-(3-chlorophenyl)ethanamine hydrochloride], in the assay with blood glucose (po, 2 h), the inhibition in vivo at 1 µmol/kg is 49%. Besides, the response vs control in vivo at 22.1 mg/kg in assay [1] (setting [3]) worked out at 140%; in assay [1] (setting [2]), 126%.
As for `CNCCOc1ccc(CC(C)NCC(OC)c2cccc(Br)c2)cc1` (stereo not drawn) [Example 17, N-[2-(4-Methylaminoethoxy)phenyl)-1-methylethyl]-2-methoxy-2-(3-bromophenyl)ethanamine dihydrochloride], the inhibition in vivo at 2.5 µmol/kg in the assay on blood glucose (setting [4]) turned out to be 25%. In addition, the response vs control in vivo at 24.7 mg/kg worked out at 142% in assay [1] (setting [3]) and 130% in assay [1] (setting [2]).
`CCOC(CNC(C)Cc1ccc(OCCNC)cc1)c1cccc(Cl)c1` (stereo not drawn) [Example 18, N-[2-(4-(2-Methylaminoethoxy)phenyl)-1-methylethyl]-2-ethoxy-2-(3-chlorophenyl)ethanamine dihydrochloride]: the inhibition in vivo at 12.5 µmol/kg in the assay on blood glucose (po, 2 h) is 47.5%. Moreover, the figures for the response vs control in vivo at 23.2 mg/kg in assay [1] (setting [3]) and in assay [1] (setting [2]) were 115% and 123%, respectively.
Take `COC(CNC(C)Cc1ccc(OCC(=O)N(C)C)cc1)c1cccc(Cl)c1` (stereo not drawn) [Example 19, N-[2-(4-Dimethylaminocarbonylmethoxyphenyl)-1-methylethyl]-2-methoxy-2-(3-chlorophenyl)ethanamine hydrochloride]: the inhibition in vivo at 1 µmol/kg with blood glucose (po, 2 h) worked out at 56%. Besides, the response vs control in vivo at 22.1 mg/kg in assay [1] (setting [3]) came out at 143%; in assay [1] (setting [2]), 139%.
As to `COC(CNC(C)Cc1ccc(OCCO)cc1)c1ccccc1` (stereo not drawn) [Example 21, N-[2-(4-(2-Hydroxyethoxy)phenyl)-1-methylethyl]-2-methoxy-2-phenylethanamine hydrochloride hemihydrate], the inhibition in vivo at 1 µmol/kg in the assay on blood glucose (1.0 μmol/Kg oral, 2 h after glucose 1 g/Kg s.c., vs control) was 48%. Also, the response vs control in vivo at 18.8 mg/kg in assay [1] (setting [2]) stood at 120%; in assay [1] (18.8 mg/kg po, 0-3 h, read-out: Mean Energy Expenditure (0-3 h)) it was 147%.
As for `COC(=O)c1ccc(CC(C)NCC(OC)c2ccccc2)cc1` (stereo not drawn) [Example 32, N-[2-(4-Carbomethoxyphenyl)-1-methylethyl]-2-methoxy-2-phenylethanamine hydrochloride hemihydrate], the inhibition in vivo at 12.5 µmol/kg in the assay with blood glucose (setting [5]) stood at 19%.
For `COc1ccc(CC(C)NCC(OC)c2cccc(Cl)c2)cc1` (stereo not drawn) [Example 38, N-[2-(4-Methoxyphenyl)-1-methylethyl]-2-methoxy-2-(3-chlorophenyl)ethanamine hydrochloride], the inhibition in vivo at 25 µmol/kg with blood glucose (po, 2 h) is 38%.
Turning to `COC(=O)c1ccc(CC(C)NCC(OC)c2cccc(C(F)(F)F)c2)cc1` (stereo not drawn) [Example 45, N-[2-(4-Carbomethoxyphenyl)-1-methylethyl]-2-methoxy-2-(3-trifluoromethylphenyl)ethanamine hydrochloride hemihydrate], the inhibition in vivo at 12.5 µmol/kg in the assay on blood glucose (setting [5]) came to 38%.
On to `CNC(=O)COc1ccc(CC(C)NCC(OC)c2cccc(F)c2F)cc1` (stereo not drawn) [Example 54, N-[2-(4-Methylaminocarbonylmethoxyphenyl)-1-methylethyl]-2-methoxy-2-(2,3-difluorophenyl)ethanamine dihydrochloride], for which the inhibition in vivo at 25 µmol/kg in the assay on blood glucose (po, 2 h) turned out to be 40%.

Values taken from patent publication US4629737A, “Secondary amines and use in pharmaceutical compositions” (Beecham Group p.l.c., priority 1982, dated 1986).
